Measured values reported in patent EP4043466B1, “PRC2 INHIBITORS” (Mirati Therapeutics, Inc., priority 2018, dated 2019).

Key:
Karpas 422 cells = test: Karpas 422 cell viability, CTG (Cell Titre Glo) assay; assay type: cell-based, human; conditions: Homo sapiens; Inhibition of proliferation of Karpas 422 cells (EZH2 Y641N); viability measured Day 4, Day 7 or Day 11, time point of the tabulated values not stated
Description: Karpas 422 cell line is a human B cell non-Hodgkin's lymphoma cell line established from a patient having DLBCL. This EZH2 heterozygotic cell line expresses a mutant form of EZH2 enzyme (Y641N) that increases histone H3 methylation and this mutation has been implicated in the tumorgenesis of lymphomas, such as DLBCL.
Karpas 422 cells (PHE cat no., 06101702) were cultured in RPMI medium supplemented with 20% fetal bovine serum and 1% penicillin/1% streptomycin and plated at a density of 1000 cells/90 µl/well in 96 well white assay plates. A dose response curve for compounds of the present invention was determined by adding a 10µl aliquot of stock solutions of varying concentrations of compounds to the same medium in each well, over a concentration range of 10µM using 3-fold dilutions to a final concentration of 1.5nM. The plates were incubated at 37° C for predetermined time periods, Day 4, Day 7, or Day 11, and the viability of the cells was measured using a CTG assay kit (Cell Titre Glo; Promega cat.no G7573) on Day 4 and Day 7 in accordance with the manufacturer's instructions.
For the viability assay for the Day 11 plates, the plates were subjected to centrifugation at 1100 rpm for five minutes on Day 7 and the supernatant was removed by aspiration. The cells were resuspended in 90 µl aliquot of the appropriate growth medium lacking the compound followed by addition of 10 µl of a 10X stock of the same compound at the same concentration. The viability of the Day 11 cells was measured using the CTG assay kit described above in accordance with the manufacturer's instructions. The IC50 values for each compound at each predetermined time point were calculated using Graph pad PRISM software and the results are shown in Table 15. A = ≤250 nM; B = […] - ≤500 nM; and C = >500 nM.

[1] = biological target: purified human, His-tagged PRC2 complex (Homo sapiens, UniProt O75530+Q15910); test: Hot Spot HMT assay: inhibition of PRC2 enzymatic activity (transfer of tritiated methyl from SAM to core histone, filter binding); assay type: biochemical; conditions: Inhibition of PRC2-mediated enzymatic activity; 10 nM PRC2 complex, 0.05 mg/ml core histone H3, 1 uM 3H-SAM, 1 hr at 30°C
Chain of purified human, His-tagged PRC2 complex (Q15910 whole entry): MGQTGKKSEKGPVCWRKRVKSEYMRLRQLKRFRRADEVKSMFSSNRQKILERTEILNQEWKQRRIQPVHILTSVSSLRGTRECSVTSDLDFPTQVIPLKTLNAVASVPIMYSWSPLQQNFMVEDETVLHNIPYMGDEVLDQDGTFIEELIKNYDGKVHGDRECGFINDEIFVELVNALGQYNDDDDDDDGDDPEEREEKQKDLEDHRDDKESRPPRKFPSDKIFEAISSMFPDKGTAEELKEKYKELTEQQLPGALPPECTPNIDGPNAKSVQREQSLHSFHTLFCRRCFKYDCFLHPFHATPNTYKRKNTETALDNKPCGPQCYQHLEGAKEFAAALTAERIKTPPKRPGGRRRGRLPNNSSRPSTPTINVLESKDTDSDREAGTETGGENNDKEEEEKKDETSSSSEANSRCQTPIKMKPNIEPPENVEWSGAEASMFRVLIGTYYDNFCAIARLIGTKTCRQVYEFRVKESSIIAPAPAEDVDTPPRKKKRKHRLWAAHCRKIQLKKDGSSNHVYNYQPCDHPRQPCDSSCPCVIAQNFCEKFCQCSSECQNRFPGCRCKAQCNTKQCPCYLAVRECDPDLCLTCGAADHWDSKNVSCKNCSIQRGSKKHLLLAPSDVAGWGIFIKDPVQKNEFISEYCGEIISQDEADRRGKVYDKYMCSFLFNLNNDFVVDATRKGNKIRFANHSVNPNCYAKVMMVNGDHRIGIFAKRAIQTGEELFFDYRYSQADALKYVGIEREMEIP
Chain of purified human, His-tagged PRC2 complex (O75530 whole entry): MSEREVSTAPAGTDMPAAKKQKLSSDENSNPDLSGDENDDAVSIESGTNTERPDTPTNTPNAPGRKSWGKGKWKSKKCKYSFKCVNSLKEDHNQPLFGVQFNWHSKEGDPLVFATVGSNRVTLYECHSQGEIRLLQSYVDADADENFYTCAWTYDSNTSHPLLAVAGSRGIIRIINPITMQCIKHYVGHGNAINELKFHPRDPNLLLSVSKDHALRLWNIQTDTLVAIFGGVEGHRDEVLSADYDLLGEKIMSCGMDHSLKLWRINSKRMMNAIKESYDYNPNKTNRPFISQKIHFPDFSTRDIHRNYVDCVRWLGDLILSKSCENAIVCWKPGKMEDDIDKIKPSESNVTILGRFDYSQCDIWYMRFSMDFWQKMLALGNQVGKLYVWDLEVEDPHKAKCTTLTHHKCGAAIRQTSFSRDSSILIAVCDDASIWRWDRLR
Chain of purified human, His-tagged PRC2 complex (Q15022 whole entry partner): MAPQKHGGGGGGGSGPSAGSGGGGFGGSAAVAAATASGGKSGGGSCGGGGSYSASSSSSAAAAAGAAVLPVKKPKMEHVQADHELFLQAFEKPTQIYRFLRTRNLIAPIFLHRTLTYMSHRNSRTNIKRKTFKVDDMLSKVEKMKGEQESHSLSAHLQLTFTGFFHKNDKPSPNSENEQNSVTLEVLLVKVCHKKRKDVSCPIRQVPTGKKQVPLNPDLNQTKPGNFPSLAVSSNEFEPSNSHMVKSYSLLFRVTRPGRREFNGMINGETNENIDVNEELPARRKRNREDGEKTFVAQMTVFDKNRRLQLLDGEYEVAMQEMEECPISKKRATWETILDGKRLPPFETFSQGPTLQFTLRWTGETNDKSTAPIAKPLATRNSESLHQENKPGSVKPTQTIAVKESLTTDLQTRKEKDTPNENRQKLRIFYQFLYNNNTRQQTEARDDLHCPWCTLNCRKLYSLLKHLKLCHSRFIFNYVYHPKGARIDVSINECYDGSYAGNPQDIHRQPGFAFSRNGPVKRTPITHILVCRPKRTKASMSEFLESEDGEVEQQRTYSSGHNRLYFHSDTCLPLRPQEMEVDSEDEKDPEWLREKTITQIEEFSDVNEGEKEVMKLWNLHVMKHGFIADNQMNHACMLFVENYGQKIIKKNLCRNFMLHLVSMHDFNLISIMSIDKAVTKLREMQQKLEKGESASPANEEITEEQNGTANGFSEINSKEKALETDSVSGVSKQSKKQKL
Chain of purified human, His-tagged PRC2 complex (Q6ZN18 whole entry partner): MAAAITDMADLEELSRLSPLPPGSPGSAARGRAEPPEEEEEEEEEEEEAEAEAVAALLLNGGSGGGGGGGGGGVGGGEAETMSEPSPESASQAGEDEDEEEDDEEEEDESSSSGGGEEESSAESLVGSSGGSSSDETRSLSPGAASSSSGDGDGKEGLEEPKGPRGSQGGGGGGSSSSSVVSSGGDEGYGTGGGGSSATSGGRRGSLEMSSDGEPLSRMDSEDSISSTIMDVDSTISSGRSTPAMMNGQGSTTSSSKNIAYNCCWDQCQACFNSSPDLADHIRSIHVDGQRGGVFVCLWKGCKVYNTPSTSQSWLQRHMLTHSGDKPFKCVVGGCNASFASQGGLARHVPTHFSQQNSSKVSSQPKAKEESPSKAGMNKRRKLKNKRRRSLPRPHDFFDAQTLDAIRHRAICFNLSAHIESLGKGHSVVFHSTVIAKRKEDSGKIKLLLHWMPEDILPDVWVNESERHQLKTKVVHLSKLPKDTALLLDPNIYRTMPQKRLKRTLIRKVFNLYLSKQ
Chain of purified human, His-tagged PRC2 complex (Q09028 whole entry partner): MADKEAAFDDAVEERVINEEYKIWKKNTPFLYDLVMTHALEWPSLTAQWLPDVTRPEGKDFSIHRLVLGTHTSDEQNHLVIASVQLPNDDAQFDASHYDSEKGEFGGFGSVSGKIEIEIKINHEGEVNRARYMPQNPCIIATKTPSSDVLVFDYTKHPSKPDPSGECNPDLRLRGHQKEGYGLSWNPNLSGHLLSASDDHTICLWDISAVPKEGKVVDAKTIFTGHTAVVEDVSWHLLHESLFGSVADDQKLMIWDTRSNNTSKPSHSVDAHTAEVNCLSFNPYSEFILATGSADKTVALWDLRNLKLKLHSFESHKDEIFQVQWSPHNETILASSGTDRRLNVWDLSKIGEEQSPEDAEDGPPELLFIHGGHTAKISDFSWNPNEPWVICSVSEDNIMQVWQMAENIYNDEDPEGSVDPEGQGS
Outline: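 Five-subunit complex (His-EZH2, Flag-EED, His-SUZ12, His-AEBP2, His-RbAp48) at 10 nM with 0.05 mg/ml core histone H3, pH 8 Tris buffer, 1% DMSO; 20 min compound pre-incubation at 30°C. Started with 1 uM [3H]-SAM, 1 hr at 30°C; tritiated H3 counted by scintillation. Compounds diluted from 1.0 µM top concentration.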

Row | SMILES | IC50 (Karpas 422 cells) [nM] | IC50 [1] [nM]
1 | CNS(=O)(=O)c1ccc(-c2cnc(NCc3c(F)ccc4c3CCO4)n3cc(C#N)nc23)cc1 [Example 59, 4-(2-cyano-5-(((5-fluoro-2,3-dihydrobenzofuran-4-yl)methyl)amino)imidazo[1,2-c]pyrimidin-8-yl)-N-methylbenzenesulfonamide] | 250 to 500 | < 100
2 | N#Cc1cn2c(NCc3c(F)ccc4c3CCO4)ncc(-c3cnn(C4COC4)c3)c2n1 [Example 106, 5-(((5-fluoro-2,3-dihydrobenzofuran-4-yl)methyl)amino)-8-(1-(oxetan-3-yl)-1H-pyrazol-4-yl)imidazo[1,2-c]pyrimidine-2-carbonitrile] | > 500 | 100 to 500
3 | Cc1nc(C2CC2)ncc1-c1cnc(NCc2c(F)ccc3c2CCO3)n2cc(C#N)nc12 [Example 25, 8-(2-cyclopropyl-4-methylpyrimidin-5-yl)-5-(((5-fluoro-2,3-dihydrobenzofuran-4-yl)methyl)amino)imidazo[1,2-c]pyrimidine-2-carbonitrile] | 250 to 500 | 100 to 500
4 | CN(C)Cc1ncc(-c2cnc(NCc3c(F)ccc4c3CCO4)n3cc(C#N)nc23)cc1F [Example 40, 8-(6-((dimethylamino)methyl)-5-fluoropyridin-3-yl)-5-(((5-fluoro-2,3-dihydrobenzofuran-4-yl)methyl)amino)imidazo[1,2-c]pyrimidine-2-carbonitrile] | ≤ 250 | < 100
5 | CCOc1ncccc1-c1cnc(NCc2c(F)ccc3c2CCO3)n2cc(C#N)nc12 [Example 124, 8-(2-ethoxypyridin-3-yl)-5-(((5-fluoro-2,3-dihydrobenzofuran-4-yl)methyl)amino)imidazo[1,2-c]pyrimidine-2-carbonitrile] | > 500 | < 100
6 | Cc1nn(C[C@H](C)O)c(C)c1-c1cnc(NCc2c(F)ccc3c2CCO3)n2cc(C#N)nc12 [Example 65, (S)-5-(((5-fluoro-2,3-dihydrobenzofuran-4-yl)methyl)amino)-8-(1-(2-hydroxypropyl)-3,5-dimethyl-1H-pyrazol-4-yl)imidazo[1,2-c]pyrimidine-2-carbonitrile] | > 500 | 100 to 500
7 | Cc1cc(-c2cnc(NCc3c(F)ccc4occc34)n3cc(C(=O)O)nc23)n(C)n1 [Example 9, 8-(1,3-dimethyl-1H-pyrazol-5-yl)-5-(((5-fluorobenzofuran-4-yl)methyl)amino)imidazo[1,2-c]pyrimidine-2-carboxylic acid] | > 500 | < 100
8 | COc1ncc(-c2cnc(NCc3c(F)ccc4c3CCO4)n3cc(C#N)nc23)c(C)n1 [Example 88, 5-(((5-fluoro-2,3-dihydrobenzofuran-4-yl)methyl)amino)-8-(2-methoxy-4-methylpyrimidin-5-yl)imidazo[1,2-c]pyrimidine-2-carbonitrile] | ≤ 250 | < 100
9 | COc1ncc(-c2cnc(NCc3c(F)ccc4c3CCO4)n3cc(C#N)nc23)cc1C#N [Example 130, 8-(5-cyano-6-methoxypyridin-3-yl)-5-(((5-fluoro-2,3-dihydrobenzofuran-4-yl)methyl)amino)imidazo[1,2-c]pyrimidine-2-carbonitrile] | > 500 | 100 to 500
10 | CNC(=O)c1cn2c(NCc3c(F)ccc4c3CCO4)ncc(-c3cc(C)nn3C)c2n1 [Example 20, 8-(1,3-dimethyl-1H-pyrazol-5-yl)-5-(((5-fluoro-2,3-dihydrobenzofuran-4-yl)methyl)amino)-N-methylimidazo[1,2-c]pyrimidine-2-carboxamide] | ≤ 250 | < 100
11 | N#Cc1cn2c(NCc3c(F)ccc4c3CCO4)ncc(-c3cccnn3)c2n1 [Example 142, 5-(((5-fluoro-2,3-dihydrobenzofuran-4-yl)methyl)amino)-8-(pyridazin-3-yl)imidazo[1,2-c]pyrimidine-2-carbonitrile] | ≤ 250 | < 100
12 | CCn1cc(-c2cnc(NCc3c(F)ccc4c3CCO4)n3cc(C#N)nc23)cn1 [Example 119, 8-(1-ethyl-1H-pyrazol-4-yl)-5-(((5-fluoro-2,3-dihydrobenzofuran-4-yl)methyl)amino)imidazo[1,2-c]pyrimidine-2-carbonitrile] | ≤ 250 | 100 to 500
13 | Cc1cc(C(=O)N(C)C)c(F)cc1-c1cnc(NCc2c(F)ccc3c2CCO3)n2cc(C#N)nc12 [Example 43, 4-(2-cyano-5-(((5-fluoro-2,3-dihydrobenzofuran-4-yl)methyl)amlno)lmldazo[1,2-c]pyrlmldln-8-yl)-2-fluoro-N,N,5-trimethylbenzamide] | ≤ 250 | < 100
14 | Cc1cc(-c2cnc(NCc3c(F)ccc4c3CCO4)n3cc(C#N)nc23)cnn1 [Example 41, 5-(((5-fluoro-2,3-dihydrobenzofuran-4-yl)methyl)amino)-8-(6-methylpyridazin-4-yl)imidazo[1,2-c]pyrimidine-2-carbonitrile] | ≤ 250 | < 100
15 | Cc1nn(C(C)C)cc1-c1cnc(NCc2c(F)ccc3c2CCO3)n2cc(C(=O)O)nc12 [Example 5, 5-(((5-fluoro-2,3-dihydrobenzofuran-4-yl)methyl)amino)-8-(1-isopropyl-3-methyl-1H-pyrazol-4-yl)imidazo[1,2-c]pyrimidine-2-carboxylic acid] | > 500 | < 100
16 | CN(C)Cc1ccc(-c2cnc(NCc3c(F)ccc4c3CCO4)n3cc(C#N)nc23)cc1 [Example 112, 8-(4-((dimethylamino)methyl)phenyl)-5-(((5-fluoro-2,3-dihydrobenzofuran-4-yl)methyl)amino)imidazo[1,2-c]pyrimidine-2-carbonitrile] | ≤ 250 | < 100
17 | N#Cc1cn2c(NCc3c(F)ccc4c3CCO4)ncc(-c3ccc(N)nc3)c2n1 [Example 127, 8-(6-aminopyridin-3-yl)-5-(((5-fluoro-2,3-dihydrobenzofuran-4-yl)methyl)amino)imidazo[1,2-c]pyrimidine-2-carbonitrile] | 250 to 500 | < 100
18 | CN(C)C(=O)c1c(F)cc(-c2cnc(NCc3c(F)ccc4c3CCO4)n3cc(C#N)nc23)cc1F [Example 45, 4-(2-cyano-5-(((5-fluoro-2,3-dihydrobenzofuran-4-yl)methyl)amino)imidazo[1,2-c]pyrimidin-8-yl)-2,6-difluoro-N,N-dimethylbenzamide] | ≤ 250 | < 100
19 | Cc1nc(N2CCN(C)CC2)ccc1-c1cnc(NCc2c(F)ccc3c2CCO3)n2cc(C(N)=O)nc12 [Example 138, 5-(((5-fluoro-2,3-dihydrobenzofuran-4-yl)methyl)amino)-8-(2-methyl-6-(4-methylpiperazin-1-yl)pyridin-3-yl)imidazo[1,2-c]pyrimidine-2-carboxamide] | ≤ 250 | < 100
20 | N#Cc1cn2c(NCc3c(F)ccc4c3CCO4)ncc(-c3cnn(CC(F)(F)F)c3)c2n1 [Example 108, 5-(((5-fluoro-2,3-dihydrobenzofuran-4-yl)methyl)amino)-8-(1-(2,2,2-trifluoroethyl)-1H-pyrazol-4-yl)imidazo[1,2-c]pyrimidine-2-carbonitrile] | ≤ 250 | < 100
21 | Cc1ccncc1-c1cnc(NCc2c(F)ccc3c2CCO3)n2cc(C#N)nc12 [Example 98, 5-(((5-fluoro-2,3-dihydrobenzofuran-4-yl)methyl)amino)-8-(4-methylpyridin-3-yl)imidazo[1,2-c]pyrimidine-2-carbonitrile] | ≤ 250 | < 100
22 | CN(C)Cc1ccc(-c2cnc(NCc3c(F)ccc4c3CCO4)n3cc(C#N)nc23)c(Cl)c1 [Example 33, 8-(2-chloro-4-((dimethylamino)methyl)phenyl)-5-(((5-fluoro-2,3-dihydrobenzofuran-4-yl)methyl)amino)imidazo[1,2-c]pyrimidine-2-carbonitrile] | ≤ 250 | < 100
23 | Cc1cncc(-c2cnc(NCc3c(F)ccc4c3CCO4)n3cc(C#N)nc23)c1 [Example 96, 5-(((5-fluoro-2,3-dihydrobenzofuran-4-yl)methyl)amino)-8-(5-methylpyridin-3-yl)imidazo[1,2-c]pyrimidine-2-carbonitrile] | 250 to 500 | < 100
24 | N#Cc1cn2c(NCc3c(F)ccc4c3CCO4)ncc(-c3cncc(F)c3)c2n1 [Example 97, 5-(((5-fluoro-2,3-dihydrobenzofuran-4-yl)methyl)amino)-8-(5-fluoropyridin-3-yl)imidazo[1,2-c]pyrimidine-2-carbonitrile] | ≤ 250 | < 100
